pIC50: −log10 of the molar value.
Target: T1, human SK3 channel (hKCa2.3) (Homo sapiens, UniProt Q9UGI6)
T1 construct: expressed in transfected cells
Experiment: Automated whole cell patch-clamp (QPatch 16 HT), inhibition of SK3 current
Type: cell-based
Details: HEK-293 cells stably expressing hKCa2.3; symmetrical K+ solutions, free calcium 400 nM; effects normalized to N-methyl bicuculline
Procedure: Automated whole cell patch-clamp recordings were performed using a QPatch 16 HT system and single-hole Qplates (Biolin Scientific, Sophion, Denmark) on HEK-293 cells stably expressing the human SK3 channel (hKCa2.3). Cells were cultured and prepared for experiments using normal cell culturing procedures. A total of 4-5 million cells were used per experiment. The Qpatch automatically generates giga sealing, whole-cell formation, compound application and recording of current. hKCa2.3 currents were recorded in symmetrical K^+ solutions, with an intracellular solution consisting of in mM: KCl 108; KOH/EGTA (ethylene glycol-bis(2-aminoethylether)-N,N,N′,N′-tetraacetic acid) 31.25/10; CaCl2) 8.1; MgCl2 1.2; HEPES (2-[4-(2-hydroxyethyl)piperazin-1-yl]ethanesulfonic acid) 10; KOH 15, pH adjusted to pH=7.2 with HCl. The free calcium concentration was calculated to 400 nM. The extracellular solution consisted of in mM: KCl 150; CaCl2) 0.1; MgCl2 3; HEPES 10; Glucose 10, pH=7.4 with KOH. The cells were held at 0 mV and hKCa2.3 currents were elicited by a linear voltage ramp from […] (200 ms in duration) applied every 5th second. The compound application protocol consisted of 12 recording periods lasting from 50-200 s: 1) Baseline recordings in extracellular solution; 2) Application of the positive control N-methyl bicuculline (100 μM), which is characterized by full efficacy, fast on- and off-rate; 3-4) Wash-out; 5-9) Increasing concentrations of test compound to establish an IC50 value; 10-11) Wash-out; 12) positive control with compound NS8593 (N-[(1R)-1,2,3,4-tetrahydro-1-naphthalenyl]-1H-benzimidazol-2-amine) (1 μM). Data were sampled at 10 kHz, 4th order Bessel filter, cut-off frequency 3 kHz. Currents were compensated for run-down. Potency was quantified as the concentration needed to inhibit half of the SK channel activity and reported as an IC50 value. All effects of compounds of the present invention as tested were normalized to the observed inhibitory effect of N-methyl bicuculline.

Row | pIC50 | SMILES
1 | > 5.00 | O=C(CC(Nc1nc2ccccc2[nH]1)c1cccc(C(F)(F)F)c1)NCc1ncco1 (stereo not shown) [Example 18, 3-[(1H-1,3-benzodiazol-2-yl)amino]-N-[(1,3-oxazol-2-yl)methyl]-3-[3-(trifluoromethyl)phenyl]propanamide]
2 | > 5.00 | CCN(CCO)C(=O)CC(Nc1nc2ccccc2[nH]1)c1ccc(C)c(Cl)c1 (stereo not shown) [Example 20, 3-[(1H-1,3-benzodiazol-2-yl)amino]-3-(3-chloro-4-methylphenyl)-N-ethyl-N-(2-hydroxyethyl)propanamide]
3 | > 5.00 | N#CCNC(=O)CC(Nc1nc2ccccc2[nH]1)c1cccc(C(F)(F)F)c1 (stereo not shown) [Example 21, 3-[(1H-1,3-benzodiazol-2-yl)amino]-N-(cyanomethyl)-3-[3-(trifluoromethyl)phenyl]propanamide]
4 | > 5.00 | CN(C)C(=O)CNC(=O)CC(Nc1nc2ccccc2[nH]1)c1cccc(C(F)(F)F)c1 (stereo not shown) [Example 22, 3-[(1H-1,3-benzodiazol-2-yl)amino]-N-[(dimethylcarbamoyl)methyl]-3-[3-(trifluoromethyl)phenyl]propanamide]
5 | 4.00 to 5.00 | NCCNC(=O)C(Nc1nc2ccccc2[nH]1)c1cccc(C(F)(F)F)c1 (stereo not shown) [Example 24, N-(2-aminoethyl)-2-[(1H-1,3-benzodiazol-2-yl)amino]-2-[3-(trifluoromethyl)phenyl]acetamide]
6 | > 5.00 | CN1CCN(C(=O)C(Nc2nc3ccccc3[nH]2)c2cccc(C(F)(F)F)c2)CC1 (stereo not shown) [Example 27, 2-[(1H-1,3-benzodiazol-2-yl)amino]-1-(4-methylpiperazin-1-yl)-2-[3-(trifluoromethyl)phenyl]ethan-1-one]
7 | > 5.00 | O=C(C(Nc1nc2ccccc2[nH]1)c1cccc(C(F)(F)F)c1)N1CCOCC1 (stereo not shown) [Example 32, 2-[(1H-1,3-benzodiazol-2-yl)amino]-1-(morpholin-4-yl)-2-[3-(trifluoromethyl)phenyl]ethan-1-one]
8 | > 5.00 | O=C(C(Nc1nc2ccccc2[nH]1)c1cccc(C(F)(F)F)c1)N1CCC1 (stereo not shown) [Example 34, 1-(azetidin-1-yl)-2-[(1H-1,3-benzodiazol-2-yl)amino]-2-[3-(trifluoromethyl)phenyl]ethan-1-one]
9 | 4.00 to 5.00 | C[N+]1(C)CCN(C(=O)C(Nc2nc3ccccc3[nH]2)c2cccc(C(F)(F)F)c2)CC1 (stereo not shown) [Example 37, 4-{2-[(1H-1,3-benzodiazol-2-yl)amino]-2-[3-(trifluoromethyl)phenyl]acetyl}-1,1-dimethylpiperazin-1-ium iodide]
10 | > 5.00 | COCCNC(=O)CC(Nc1nc2ccccc2[nH]1)c1cccc(C(F)(F)F)c1 (stereo not shown) [Example 42, 3-[(1H-1,3-benzodiazol-2-yl)amino]-N-(2-methoxyethyl)-3-[3-(trifluoromethyl)phenyl]propanamide]
11 | 4.00 to 5.00 | CNCCN(C)C(=O)CC(Nc1nc2ccccc2[nH]1)c1cccc(C(F)(F)F)c1 (stereo not shown) [Example 44, 3-[(1H-1,3-benzodiazol-2-yl)amino]-N-methyl-N-[2-(methylamino)ethyl]-3-[3-(trifluoromethyl)phenyl]propanamide]

The next lines start with the molecule.

Row | SMILES | pIC50
12 | O=C(CC(Nc1nc2ccccc2[nH]1)c1cccc(C(F)(F)F)c1)NCCNS(=O)(=O)Cc1ccccc1 (stereo not shown) [Example 12, 3-[(1H-1,3-benzodiazol-2-yl)amino]-N-[2-(phenylmethanesulfonamido)ethyl]-3-[3-(trifluoromethyl)phenyl]propanamide] | 4.00 to 5.00
13 | O=C(CC(Nc1nc2ccccc2[nH]1)c1cccc(C(F)(F)F)c1)N1CCC[C@@H](O)C1 (stereo partly drawn) [Example 13, 3-[(1H-1,3-benzodiazol-2-yl)amino]-1-[(3R)-3-hydroxypiperidin-1-yl]-3-[3-(trifluoromethyl)phenyl]propan-1-one] | 4.00 to 5.00
14 | O=C(CC(Nc1nc2ccccc2[nH]1)c1cccc(C(F)(F)F)c1)N1CC[C@@H](O)C1 (stereo partly drawn) [Example 14, 3-[(1H-1,3-benzodiazol-2-yl)amino]-1-[(3R)-3-hydroxypyrrolidin-1-yl]-3-[3-(trifluoromethyl)phenyl]propan-1-one] | 4.00 to 5.00
15 | O=C(CC(Nc1nc2ccccc2[nH]1)c1cccc(C(F)(F)F)c1)N1CC[C@H](O)C1 (stereo partly drawn) [Example 15, 3-[(1H-1,3-benzodiazol-2-yl)amino]-1-[(3S)-3-hydroxypyrrolidin-1-yl]-3-[3-(trifluoromethyl)phenyl]propan-1-one] | 4.00 to 5.00
16 | O=C(CC(Nc1nc2ccccc2[nH]1)c1cccc(C(F)(F)F)c1)NCCCO (stereo not shown) [Example 16, 3-[(1H-1,3-benzodiazol-2-yl)amino]-N-(3-hydroxypropyl)-3-[3-(trifluoromethyl)phenyl]propanamide] | 4.00 to 5.00
17 | CN(CCCO)C(=O)CC(Nc1nc2ccccc2[nH]1)c1cccc(C(F)(F)F)c1 (stereo not shown) [Example 17, 3-[(1H-1,3-benzodiazol-2-yl)amino]-N-(3-hydroxypropyl)-N-methyl-3-[3-(trifluoromethyl)phenyl]propanamide] | > 5.00
18 | Cn1ccnc1CNC(=O)CC(Nc1nc2ccccc2[nH]1)c1cccc(C(F)(F)F)c1 (stereo not shown) [Example 19, 3-[(1H-1,3-benzodiazol-2-yl)amino]-N-[(1-methyl-1H-imidazol-2-yl)methyl]-3-[3-(trifluoromethyl)phenyl]propanamide] | 4.00 to 5.00
19 | CCOC(=O)CNC(=O)CC(Nc1nc2ccccc2[nH]1)c1cccc(C(F)(F)F)c1 (stereo not shown) [Example 23, Ethyl 2-{3-[(1H-1,3-benzodiazol-2-yl)amino]-3-[3-(trifluoromethyl)phenyl]propanamido}acetate] | > 5.00
20 | CN(C)CCN(C)C(=O)C(Nc1nc2ccccc2[nH]1)c1cccc(C(F)(F)F)c1 (stereo not shown) [Example 25, 2-[(1H-1,3-benzodiazol-2-yl)amino]-N-[2-(dimethylamino)ethyl]-N-methyl-2-[3-(trifluoromethyl)phenyl]acetamide] | 4.00 to 5.00
21 | O=C(C(Nc1nc2ccccc2[nH]1)c1cccc(C(F)(F)F)c1)N1CCNCC1 (stereo not shown) [Example 26, 2-[(1H-1,3-benzodiazol-2-yl)amino]-1-(piperazin-1-yl)-2-[3-(trifluoromethyl)phenyl]ethan-1-one] | 4.00 to 5.00
22 | CN(C)C1CN(C(=O)C(Nc2nc3ccccc3[nH]2)c2cccc(C(F)(F)F)c2)C1 (stereo not shown) [Example 28, 2-[(1H-1,3-benzodiazol-2-yl)amino]-1-[3-(dimethylamino)azetidin-1-yl]-2-[3-(trifluoromethyl)phenyl]ethan-1-one] | 4.00 to 5.00
23 | O=C(C(Nc1nc2ccccc2[nH]1)c1cccc(C(F)(F)F)c1)N1CCCC1 (stereo not shown) [Example 29, 2-[(1H-1,3-benzodiazol-2-yl)amino]-1-(pyrrolidin-1-yl)-2-[3-(trifluoromethyl)phenyl]ethan-1-one] | > 5.00
24 | CN(CCO)C(=O)C(Nc1nc2ccccc2[nH]1)c1cccc(C(F)(F)F)c1 (stereo not shown) [Example 30, 2-[(1H-1,3-benzodiazol-2-yl)amino]-N-(2-hydroxyethyl)-N-methyl-2-[3-(trifluoromethyl)phenyl]acetamide] | > 5.00
25 | O=C(C(Nc1nc2ccccc2[nH]1)c1cccc(C(F)(F)F)c1)N1CCCCC1 (stereo not shown) [Example 31, 2-[(1H-1,3-benzodiazol-2-yl)amino]-1-(piperidin-1-yl)-2-[3-(trifluoromethyl)phenyl]ethan-1-one] | > 5.00
26 | CC(C)S(=O)(=O)N1CCN(C(=O)C(Nc2nc3ccccc3[nH]2)c2cccc(C(F)(F)F)c2)CC1 (stereo not shown) [Example 33, 2-[(1H-1,3-benzodiazol-2-yl)amino]-1-[4-(propane-2-sulfonyl)piperazin-1-yl]-2-[3-(trifluoromethyl)phenyl]ethan-1-one] | 4.00 to 5.00
27 | O=C(NC1COC1)C(Nc1nc2ccccc2[nH]1)c1cccc(C(F)(F)F)c1 (stereo not shown) [Example 35, 2-[(1H-1,3-benzodiazol-2-yl)amino]-N-(oxetan-3-yl)-2-[3-(trifluoromethyl)phenyl]acetamide] | 4.00 to 5.00
28 | O=C(C(Nc1nc2ccccc2[nH]1)c1cccc(C(F)(F)F)c1)N1CC2(COC2)C1 (stereo not shown) [Example 36, 2-[(1H-1,3-benzodiazol-2-yl)amino]-1-{2-oxa-6-azaspiro[3.3]heptan-6-yl}-2-[3-(trifluoromethyl)phenyl]ethan-1-one] | 4.00 to 5.00
29 | CCN(CCO)C(=O)C(Nc1nc2ccccc2[nH]1)c1cccc(C(F)(F)F)c1 (stereo not shown) [Example 38, 2-[(1H-1,3-benzodiazol-2-yl)amino]-N-ethyl-N-(2-hydroxyethyl)-2-[3-(trifluoromethyl)phenyl]acetamide] | > 5.00
30 | CCN(CCO)C(=O)CC(Nc1nc2ccccc2[nH]1)c1cccc(C(F)(F)F)c1 (stereo not shown) [Example 41, 3-[(1H-1,3-benzodiazol-2-yl)amino]-N-ethyl-N-(2-hydroxy-ethyl)-3-[3-(trifluoromethyl)phenyl]propanamide] | > 5.00
31 | COCCN(C)C(=O)CC(Nc1nc2ccccc2[nH]1)c1cccc(C(F)(F)F)c1 (stereo not shown) [Example 43, 3-[(1H-1,3-benzodiazol-2-yl)amino]-N-(2-methoxyethyl)-N-methyl-3-[3-(trifluoromethyl)phenyl]propanamide] | > 5.00

Source: US11274092B2, “Potassium channel inhibitors” (ACESION PHARMA ApS, priority 2016, dated 2022)
